In brackets after ≈: the same amount, converted by molar mass. Like-named read-outs stand apart in the source and are kept apart here.

The results in this text go back to patent US20150132405A1, “SYNERGISTIC COMPOSITIONS OF MONOCHLOROUREA AND MODIFIED MONOCHLOROUREAS” (HERCULES INCORPORATED, priority 2013, published 2015).

For the assay, the system named is Escherichia coli. As to the kind of experiment: Minimal Inhibitory Concentration (MIC), two-fold dilution series in 96 well microplate. It is filed as cell-based. As to conditions: for MIC (QA), used alone: first biocide used alone. From the text:
While there are various methods known to individuals skilled in the art for measuring levels of antimicrobial activity, in the following examples the endpoint used is known as the Minimal Inhibitory Concentration, or MIC. This is the lowest concentration of a substance or substances which can achieve complete inhibition of growth.
In order to determine the Minimal Inhibitory Concentration, a two-fold dilution series of the biocide is constructed with the dilutions being made in growth media. The dilutions are made in a 96 well microplate such that each well has a final volume of 280 μl of media and biocide. The first well has, for example, a concentration of 1000 ppm biocide, the second 500 ppm, the third 250 ppm, and so forth, with the 12th and final well in the row having no biocide at all and serving as a positive growth control. After the dilution series is constructed the wells receive an inoculum of microbe suspended in growth media such that the final concentration of microbes in the well is ˜5×10^5 cfu/ml. In these examples the test microbe used is Escherichia coli. The cultures are incubated at an appropriate temperature for 18-24 hours, and the wells scored as positive or negative for growth based on a visual examination for turbid wells.

Setting [1] is: second biocide used alone, complete inhibition of growth, 18-24 hours.
The mark [2] stands for this setting: Escherichia coli, second biocide used alone, complete inhibition of growth, 18-24 hours, read-out: MIC (QB), used alone.
[3] abbreviates: Escherichia coli, used alone, Table 26.
Setting [4] is: complete inhibition of growth, 18-24 hours.

Turning to `OO` [H2O2, hydrogen peroxide], the “MIC (QB), used alone” value under setting [1] is given as 1000 ppm.

As to methyl monochlorourea [MMCU], the “MIC (QB), used alone” value under setting [1] was 16 ppm.

As a reminder, the MIC is the lowest concentration that inhibits growth of the organism. As for `CC1(C)C(=O)N(Cl)C(=O)N1Br` [BCDMH, 1-bromo-3-chloro-5,5-dimethylhydantoin], under setting [2], the MIC amounted to 61 µg/mL (≈ 253 µM).

For “N-alkyl (C12-C16)-N,N-dimethyl benzylalkonium chloride [QAC]”, under setting [3], the “QAC MIC (QB), used alone” value was determined as 27 ppm. Moreover, the “MIC (QB), used alone” value under setting [1] is 27 ppm.

For the compound `NCl` [MCA, monochloramine], the “MIC (QB), used alone” value under setting [1] was 47 ppm.

As for `O=CCCCC=O` [GLUT, glutaraldehyde], the MIC came out at 45 µg/mL (≈ 449 µM) under setting [2] and 45 µg/mL (≈ 449 µM) (Escherichia coli, used alone, Table 28, read-out: GLUT MIC (QB), used alone).

As to `NC(=O)NCl` [MCU, monochlorourea], the “MIC (QA), used alone” value under setting [4] is 100 ppm. Moreover, the “MIC (QB), used alone” value under setting [1] was found to be 100 ppm.

As to `N#CSCSC#N` [MBT, methylene bisthiocyanate], the MIC (Escherichia coli, read-out: MIC (QB), used alone) worked out at 8 µg/mL (≈ 61.4 µM).

For `O=[N+]([O-])C(Br)(CO)CO` [BNPD, 2-bromo-2-nitropropane-1,3,-diol], the “MIC (QB), used alone” value under setting [1] came out at 24 ppm.

Turning to `CNC(=O)N(C)Cl` [DMCU, dimethyl monochlorourea], the “DMCU MIC (QA), used alone” value is 10 ppm under setting [3]; 10 ppm (Escherichia coli, used alone, Table 27); 10 ppm (Escherichia coli, used alone, Table 28). Besides, the “MIC (QA), used alone” value under setting [4] is 10 ppm. Under setting [1], the “MIC (QB), used alone” value worked out at 10 ppm.

As to `N#CC(Br)(Br)C(N)=O` [DBNPA, 2,2-dibromo-3-nitrilopropionamide], the MIC under setting [2] worked out at 11 µg/mL (≈ 45.5 µM).
